ChEMBL document CHEMBL1909536, “7-Oxopyrrolopyridine-derived DPP4 inhibitors-mitigation of CYP and hERG liabilities via introduction of polar functionalities in the active site” (Bioorg Med Chem Lett, 2011)
Where “and” joins values, the source holds several entries; their conditions need not be identical. Equal values may be shown once.

Experiments:
Cytochrome P450 3A4 [1] = target: T1, Cytochrome P450 3A4 (Homo sapiens, UniProt P08684); assay: Inhibition of CYP3A4 up to 40 uM; assay type: ADME
Cytochrome P450 3A4 [2] = target: T1, Cytochrome P450 3A4; assay: Inhibition of CYP3A4 in presence of the substrate 7-bezyloxy-4-trifluoromethyl coumarin; assay type: ADME
[3] = target: T2, Nuclear receptor subfamily 1 group I member 2 (Homo sapiens, UniProt O75469); assay: Inhibition of PXR
T2 sequence (O75469 whole entry): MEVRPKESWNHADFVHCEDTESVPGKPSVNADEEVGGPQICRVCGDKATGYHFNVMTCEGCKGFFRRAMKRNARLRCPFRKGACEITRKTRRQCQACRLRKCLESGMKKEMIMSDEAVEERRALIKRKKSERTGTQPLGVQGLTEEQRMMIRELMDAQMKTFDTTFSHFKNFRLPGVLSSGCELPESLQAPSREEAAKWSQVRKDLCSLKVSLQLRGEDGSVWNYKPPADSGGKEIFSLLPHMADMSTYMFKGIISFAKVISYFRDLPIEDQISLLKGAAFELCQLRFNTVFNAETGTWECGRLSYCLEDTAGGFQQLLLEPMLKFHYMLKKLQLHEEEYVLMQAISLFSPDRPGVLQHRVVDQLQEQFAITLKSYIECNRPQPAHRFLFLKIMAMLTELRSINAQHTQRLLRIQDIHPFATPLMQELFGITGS

Cytochrome P450 3A4 [4] = target: T1, Cytochrome P450 3A4; assay: Inhibition of CYP3A4 in presence of the substrate 7-bezyloxy resorufin; assay type: ADME
Cytochrome P450 2C19 = Cytochrome P450 2C19 (Homo sapiens, UniProt P33261); assay: Inhibition of CYP2C19; assay type: ADME
[5] = target: T3, Voltage-gated inwardly rectifying potassium channel KCNH2 (Homo sapiens, UniProt Q12809); assay: Inhibition of human ERG by flux assay
Dipeptidyl peptidase 4 = Dipeptidyl peptidase 4 (Homo sapiens, UniProt P27487); assay: Inhibition of DPP4
Dipeptidyl peptidase 9 = Dipeptidyl peptidase 9 (Homo sapiens, UniProt Q86TI2); assay: Inhibition of DPP9
hERG (KCNH2) = hERG (KCNH2) (Homo sapiens, UniProt Q12809); assay: (§1) Inhibition of human ERG at 10 uM by patch clamp assay; conditions: INH
Dipeptidyl peptidase 8 = Dipeptidyl peptidase 8 (Homo sapiens, UniProt Q6V1X1); assay: Inhibition of DPP8
Cytochrome P450 3A4 [6] = target: T1, Cytochrome P450 3A4; assay: Inhibition of CYP3A4; assay type: ADME
[7] = Cmax in rat at 10 umol/kg; assay type: ADME, organism-based; parameters: dose 10 umol/kg; conditions: in vivo
[8] = target: T3, Voltage-gated inwardly rectifying potassium channel KCNH2
[9] = target: T3, Voltage-gated inwardly rectifying potassium channel KCNH2; assay: as §1; conditions: 10 µM
[10] = Tmax in rat at 10 umol/kg; assay type: ADME, organism-based; conditions: in vivo
[11] = Half life in rat; assay type: ADME, organism-based; conditions: in vivo
[12] = Oral availability in rat; assay type: ADME, organism-based; conditions: in vivo

Dipeptidyl peptidase 4, sequence (P27487 whole entry): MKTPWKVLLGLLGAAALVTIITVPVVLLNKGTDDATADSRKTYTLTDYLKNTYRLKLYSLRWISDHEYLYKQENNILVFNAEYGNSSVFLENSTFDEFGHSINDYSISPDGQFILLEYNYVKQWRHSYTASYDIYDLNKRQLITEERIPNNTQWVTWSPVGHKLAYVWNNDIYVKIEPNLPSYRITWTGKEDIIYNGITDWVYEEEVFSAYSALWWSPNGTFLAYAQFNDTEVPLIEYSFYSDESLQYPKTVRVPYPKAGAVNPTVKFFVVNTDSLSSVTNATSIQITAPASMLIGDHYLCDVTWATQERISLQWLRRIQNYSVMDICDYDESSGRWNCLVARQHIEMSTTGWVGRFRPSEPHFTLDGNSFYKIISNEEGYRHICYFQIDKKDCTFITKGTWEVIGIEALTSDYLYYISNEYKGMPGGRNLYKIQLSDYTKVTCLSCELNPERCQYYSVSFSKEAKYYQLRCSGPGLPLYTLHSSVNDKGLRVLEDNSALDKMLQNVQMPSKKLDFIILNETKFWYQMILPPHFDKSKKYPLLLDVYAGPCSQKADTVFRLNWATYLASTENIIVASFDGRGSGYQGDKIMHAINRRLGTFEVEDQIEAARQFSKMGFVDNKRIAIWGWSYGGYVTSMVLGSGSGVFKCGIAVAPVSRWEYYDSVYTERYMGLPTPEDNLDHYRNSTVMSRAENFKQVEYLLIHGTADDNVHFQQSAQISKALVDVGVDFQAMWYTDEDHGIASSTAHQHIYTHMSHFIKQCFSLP
Dipeptidyl peptidase 8, sequence (Q6V1X1 whole entry): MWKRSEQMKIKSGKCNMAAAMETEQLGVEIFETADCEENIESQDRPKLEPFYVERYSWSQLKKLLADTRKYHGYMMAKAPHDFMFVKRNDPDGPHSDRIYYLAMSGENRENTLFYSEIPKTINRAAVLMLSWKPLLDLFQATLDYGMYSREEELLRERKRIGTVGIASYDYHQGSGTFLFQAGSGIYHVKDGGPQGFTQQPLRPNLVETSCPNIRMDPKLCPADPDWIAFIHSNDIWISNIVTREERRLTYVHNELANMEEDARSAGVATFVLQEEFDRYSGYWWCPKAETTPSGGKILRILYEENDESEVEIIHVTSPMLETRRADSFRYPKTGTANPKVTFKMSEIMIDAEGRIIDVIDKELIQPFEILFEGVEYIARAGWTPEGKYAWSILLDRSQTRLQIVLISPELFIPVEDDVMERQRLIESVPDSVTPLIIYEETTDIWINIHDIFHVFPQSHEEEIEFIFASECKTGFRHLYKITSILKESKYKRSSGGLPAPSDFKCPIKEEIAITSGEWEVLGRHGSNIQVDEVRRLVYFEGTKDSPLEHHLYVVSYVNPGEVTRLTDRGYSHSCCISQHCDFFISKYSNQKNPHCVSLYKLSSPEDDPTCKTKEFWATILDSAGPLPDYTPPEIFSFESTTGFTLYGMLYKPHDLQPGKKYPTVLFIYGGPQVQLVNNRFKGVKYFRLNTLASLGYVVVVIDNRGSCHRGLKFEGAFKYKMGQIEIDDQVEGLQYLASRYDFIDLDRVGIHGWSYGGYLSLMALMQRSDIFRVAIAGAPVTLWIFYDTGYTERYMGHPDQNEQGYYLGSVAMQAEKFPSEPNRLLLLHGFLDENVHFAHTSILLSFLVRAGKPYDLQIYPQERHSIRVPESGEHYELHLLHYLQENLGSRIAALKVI
T3 sequence (Q12809 whole entry): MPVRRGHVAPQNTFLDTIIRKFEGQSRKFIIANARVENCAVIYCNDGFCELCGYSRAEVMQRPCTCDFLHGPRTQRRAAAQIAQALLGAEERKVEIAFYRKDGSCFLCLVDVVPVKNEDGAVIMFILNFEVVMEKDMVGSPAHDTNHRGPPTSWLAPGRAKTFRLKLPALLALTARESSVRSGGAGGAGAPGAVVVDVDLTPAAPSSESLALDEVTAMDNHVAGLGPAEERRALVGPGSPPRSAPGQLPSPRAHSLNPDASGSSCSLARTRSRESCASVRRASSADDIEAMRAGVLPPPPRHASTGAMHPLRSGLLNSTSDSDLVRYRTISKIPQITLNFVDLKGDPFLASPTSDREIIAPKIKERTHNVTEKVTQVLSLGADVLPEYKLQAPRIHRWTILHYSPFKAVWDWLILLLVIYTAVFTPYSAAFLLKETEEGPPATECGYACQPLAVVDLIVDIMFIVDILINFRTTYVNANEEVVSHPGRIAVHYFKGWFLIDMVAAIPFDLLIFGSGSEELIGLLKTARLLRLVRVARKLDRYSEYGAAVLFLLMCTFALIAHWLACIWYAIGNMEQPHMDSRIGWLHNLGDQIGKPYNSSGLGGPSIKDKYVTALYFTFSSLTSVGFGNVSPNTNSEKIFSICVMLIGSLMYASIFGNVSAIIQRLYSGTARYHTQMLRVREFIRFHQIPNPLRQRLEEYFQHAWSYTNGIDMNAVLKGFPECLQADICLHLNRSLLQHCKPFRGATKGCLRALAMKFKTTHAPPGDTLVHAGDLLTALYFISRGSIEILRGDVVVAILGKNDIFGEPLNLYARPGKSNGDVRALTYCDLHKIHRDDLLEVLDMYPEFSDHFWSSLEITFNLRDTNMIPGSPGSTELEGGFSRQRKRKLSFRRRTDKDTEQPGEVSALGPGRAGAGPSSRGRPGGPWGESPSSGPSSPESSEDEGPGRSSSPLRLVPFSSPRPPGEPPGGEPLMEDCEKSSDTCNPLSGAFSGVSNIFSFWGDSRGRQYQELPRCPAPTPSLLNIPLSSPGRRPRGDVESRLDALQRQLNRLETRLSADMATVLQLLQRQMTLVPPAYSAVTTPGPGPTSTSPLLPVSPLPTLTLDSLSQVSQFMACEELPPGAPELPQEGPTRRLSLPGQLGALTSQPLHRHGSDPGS
hERG (KCNH2), sequence (Q12809 whole entry): as above
Cytochrome P450 2C19, sequence (P33261 whole entry): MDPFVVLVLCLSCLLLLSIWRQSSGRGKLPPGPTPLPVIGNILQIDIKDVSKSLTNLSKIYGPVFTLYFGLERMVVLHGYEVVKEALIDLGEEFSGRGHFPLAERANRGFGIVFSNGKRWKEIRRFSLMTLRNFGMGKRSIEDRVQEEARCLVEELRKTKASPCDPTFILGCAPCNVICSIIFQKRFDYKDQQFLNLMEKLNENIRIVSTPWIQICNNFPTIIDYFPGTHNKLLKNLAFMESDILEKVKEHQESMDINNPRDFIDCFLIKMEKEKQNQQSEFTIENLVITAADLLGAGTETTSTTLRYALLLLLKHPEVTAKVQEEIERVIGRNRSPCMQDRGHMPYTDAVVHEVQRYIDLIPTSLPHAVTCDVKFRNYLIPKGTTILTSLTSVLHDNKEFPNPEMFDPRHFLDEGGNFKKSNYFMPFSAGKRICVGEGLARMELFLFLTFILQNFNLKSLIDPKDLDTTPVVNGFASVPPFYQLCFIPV
T1 sequence (P08684 whole entry): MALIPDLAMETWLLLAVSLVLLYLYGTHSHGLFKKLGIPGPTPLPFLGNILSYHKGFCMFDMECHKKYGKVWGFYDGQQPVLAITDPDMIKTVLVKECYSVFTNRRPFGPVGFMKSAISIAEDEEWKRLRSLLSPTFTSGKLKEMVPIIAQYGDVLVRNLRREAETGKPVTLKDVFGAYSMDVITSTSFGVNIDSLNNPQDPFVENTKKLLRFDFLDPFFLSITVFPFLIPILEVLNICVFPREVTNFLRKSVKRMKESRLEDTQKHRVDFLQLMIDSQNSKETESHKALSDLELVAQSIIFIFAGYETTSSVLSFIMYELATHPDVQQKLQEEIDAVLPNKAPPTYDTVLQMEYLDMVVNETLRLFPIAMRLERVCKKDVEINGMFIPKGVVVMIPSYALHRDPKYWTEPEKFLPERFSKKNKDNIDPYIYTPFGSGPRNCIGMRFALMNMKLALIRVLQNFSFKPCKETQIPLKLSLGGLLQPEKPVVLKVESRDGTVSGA

Work on `Cc1nc2c(c(-c3ccc(Cl)cc3Cl)c1CN)CN(CC(=O)N1CCC(C(N)=O)CC1)C2=O` (single isomer, unassigned; atropisomer) yielded an IC50 (Cytochrome P450 3A4 [1]) greater than 17000 nM.

With `Cc1nc2c(c(-c3ccc(Cl)cc3Cl)c1CN)CN(CC(=O)O)C2=O` (single isomer, unassigned; atropisomer) the IC50 (Cytochrome P450 3A4 [2]) was greater than 40000 nM.

In the case of `CCN(CC)C(=O)CN1Cc2c(nc(C)c(CN)c2-c2ccc(Cl)cc2Cl)C1=O`, the IC50 (Cytochrome P450 3A4 [1]) is reported as greater than 17000 nM.

Work on `Cc1nc2cn(Cc3ccccc3)cc2c(-c2ccc(Cl)cc2Cl)c1CN` yielded an IC50 (Cytochrome P450 3A4 [2]) of 1100 nM, an EC20 [3] of 1900 nM and an EC60 [3] greater than 5600 nM. For the same molecule, the IC50 (Cytochrome P450 3A4 [4]) was 730 nM, the IC50 (Cytochrome P450 2C19) was 950 nM and the IC50 [5] was 14000 nM.

With `Cc1nc2c(c(-c3ccc(Cl)cc3Cl)c1CN)CN(CC(=O)N1CCN(C)CC1)C2=O` (atropisomer, axis not shown) the Ki (Dipeptidyl peptidase 4) was 0.67 nM, the IC50 (Cytochrome P450 3A4 [1]) was greater than 17000 nM and the Ki (Dipeptidyl peptidase 9) was greater than 10000 nM.

For `Cc1nc2c(c(-c3ccc(Cl)cc3Cl)c1CN)CN(CC(N)=O)C2=O` (single isomer, unassigned; atropisomer), the IC50 (Cytochrome P450 3A4 [1]) was greater than 17000 nM.

Molecule `Cc1nc2c(c(-c3ccc(Cl)cc3Cl)c1CN)CN(CC(=O)N1CCCC1)C2=O` (single isomer, unassigned; atropisomer) has an IC50 (Cytochrome P450 3A4 [1]) greater than 17000 nM.

For `COC(=O)CN1Cc2c(nc(C)c(CN)c2-c2ccc(Cl)cc2Cl)C1=O` (single isomer, unassigned; atropisomer), the IC50 (Cytochrome P450 3A4 [2]) was 17000 nM.

For `Cc1nc2c(c(-c3ccc(Cl)cc3Cl)c1CN)CNC2=O` (single isomer, unassigned; atropisomer), the IC50 (Cytochrome P450 3A4 [2]) was greater than 40000 nM, the inhibition at 10 µM (hERG (KCNH2)) was 68% and the Ki (Dipeptidyl peptidase 8) was greater than 30000 nM. For the same molecule, the “inhibition (INH)” value (Cytochrome P450 3A4 [6]) was “Not Active” and the Ki (Dipeptidyl peptidase 9) was greater than 30000 nM.

Work on `CC(=O)N1CCN(C(=O)CN2Cc3c(nc(C)c(CN)c3-c3ccc(Cl)cc3Cl)C2=O)CC1` yielded an IC50 (Cytochrome P450 3A4 [1]) greater than 17000 nM.

For `Cc1nc2c(c(-c3ccc(Cl)cc3Cl)c1CN)CN(CC(=O)Nc1ccnn1C)C2=O`, the IC50 (Cytochrome P450 3A4 [1]) was greater than 17000 nM.

`Cc1ccc(N2Cc3c(nc(C)c(CN)c3-c3ccc(Cl)cc3Cl)C2=O)cc1` (single isomer, unassigned; atropisomer) gave an IC50 (Cytochrome P450 3A4 [2]) of 270 nM and an inhibition at 10 µM (hERG (KCNH2)) of 84%.

Molecule `Cc1nc2c(c(-c3ccc(Cl)cc3Cl)c1CN)CN(Cc1ccccc1)C2` has an IC50 (Cytochrome P450 3A4 [2]) of 770 nM, a Cmax [7] of 76 nM and an EC20 [3] of 1100 nM. The EC60 [3] was 3300 nM, the IC50 (Cytochrome P450 3A4 [4]) was 340 nM and the inhibition at 10 µM (hERG (KCNH2)) was 67%. The Ki (Dipeptidyl peptidase 8) was greater than 30000 nM, the IC50 (Cytochrome P450 2C19) was 340 nM and the Ki (Dipeptidyl peptidase 9) was greater than 30000 nM.

Molecule `Cc1nc2c(c(-c3ccc(Cl)cc3Cl)c1CN)CN(CC(=O)NCc1cccnc1)C2=O` has an IC50 [8] of 80000 nM and an IC50 (Cytochrome P450 3A4 [1]) of 7000 nM.

`Cc1nc2c(c(-c3ccc(Cl)cc3Cl)c1CN)CN(c1ccc(F)cc1)C2=O` (single isomer, unassigned; atropisomer) gave an IC50 (Cytochrome P450 3A4 [2]) of 1400 nM and an inhibition at 10 µM (hERG (KCNH2)) of 92%.

Molecule `Cc1nc2c(c(-c3ccc(Cl)cc3Cl)c1CN)CN(CCO)C2=O` (single isomer, unassigned; atropisomer) has an IC50 (Cytochrome P450 3A4 [2]) greater than 40000 nM, a Ki (Dipeptidyl peptidase 8) greater than 30000 nM and a Ki (Dipeptidyl peptidase 4) of 9 nM. For the same molecule, the Ki (Dipeptidyl peptidase 9) was greater than 30000 nM.

`Cc1nc2c(c(-c3ccc(Cl)cc3Cl)c1CN)CN(CC(=O)N1CCN(S(C)(=O)=O)CC1)C2=O` (single isomer, unassigned; atropisomer) gave an IC50 (Cytochrome P450 3A4 [1]) greater than 17000 nM.

In the case of `COc1ccccc1N1Cc2c(nc(C)c(CN)c2-c2ccc(Cl)cc2Cl)C1=O` (atropisomer R), the IC50 (Cytochrome P450 3A4 [2]) is reported as 1500 nM and 1300 nM and 2200 nM, the inhibition at 10 µM (hERG (KCNH2)) is reported as 63% and the INH [9] is reported as 67% and 68%.

With `Cc1nc2c(c(-c3ccc(Cl)cc3Cl)c1CN)CN(c1ccc(C#N)cc1)C2=O` (single isomer, unassigned; atropisomer) the IC50 (Cytochrome P450 3A4 [2]) was 670 nM and the inhibition at 10 µM (hERG (KCNH2)) was 97%.

With `CNC(=O)CN1Cc2c(nc(C)c(CN)c2-c2ccc(Cl)cc2Cl)C1=O` (single isomer, unassigned; atropisomer) the Cmax [7] was 32 nM, the EC20 [3] was greater than 50000 nM and the EC60 [3] was greater than 50000 nM. It also gave a Tmax [10] of 0.417 h and an IC50 (Cytochrome P450 3A4 [1]) greater than 17000 nM.

`Cc1nc2c(c(-c3ccc(Cl)cc3Cl)c1CN)CN(CC(=O)N1CCOCC1)C2=O` (single isomer, unassigned; atropisomer) gave an IC50 (Cytochrome P450 3A4 [1]) greater than 17000 nM.

With `Cc1nc2c(c(-c3ccc(Cl)cc3Cl)c1CN)CN(c1ccc(Cl)cc1)C2=O` (single isomer, unassigned; atropisomer) the IC50 (Cytochrome P450 3A4 [2]) was 390 nM and the inhibition at 10 µM (hERG (KCNH2)) was 82%.

With `Cc1nc2c(c(-c3ccc(Cl)cc3Cl)c1CN)CN(CC(=O)N(C)C)C2=O` (single isomer, unassigned; atropisomer) the IC50 (Cytochrome P450 3A4 [1]) was greater than 17000 nM.

For `Cc1nc2c(c(-c3ccc(Cl)cc3Cl)c1CN)CN(C)C2=O` (single isomer, unassigned; atropisomer), the IC50 (Cytochrome P450 3A4 [2]) was greater than 40000 nM, the Ki (Dipeptidyl peptidase 8) was greater than 30000 nM and the Ki (Dipeptidyl peptidase 4) was 29 nM.

Work on `COc1cc2c(cc1OC)-c1nc(N)c(CN)c(-c3ccc(Cl)cc3Cl)c1C2` yielded an IC50 (Dipeptidyl peptidase 4) of 7 nM.

Work on `Cc1nc2c(c(-c3ccc(Cl)cc3Cl)c1CN)CN(c1ccccc1)C2=O` (single isomer, unassigned; atropisomer) yielded an IC50 (Cytochrome P450 3A4 [2]) of 1200 nM, a half-life [11] of 4.4 h and an inhibition at 10 µM (hERG (KCNH2)) of 69%. For the same molecule, the bioavailability [12] was 78%.

`COc1ccc(N2Cc3c(nc(C)c(CN)c3-c3ccc(Cl)cc3Cl)C2=O)cc1` (single isomer, unassigned; atropisomer) gave an IC50 (Cytochrome P450 3A4 [2]) of 2500 nM and an inhibition at 10 µM (hERG (KCNH2)) of 67%.

In the case of `COCCN1Cc2c(nc(C)c(CN)c2-c2ccc(Cl)cc2Cl)C1=O` (single isomer, unassigned; atropisomer), the IC50 (Cytochrome P450 3A4 [2]) is reported as 22000 nM and the Ki (Dipeptidyl peptidase 9) is reported as greater than 30000 nM.

`Cc1nc2c(c(-c3ccc(Cl)cc3Cl)c1CN)CN(Cc1ccccc1)C2=O` (single isomer, unassigned; atropisomer) showed an IC50 (Cytochrome P450 3A4 [2]) of 2800 nM, a Cmax [7] of 500 nM and an EC20 [3] of 470 nM. The EC60 [3] was 1400 nM, the IC50 (Cytochrome P450 3A4 [4]) was 1400 nM and the IC50 (Cytochrome P450 2C19) was 15000 nM.

With `NCc1c(-c2ccc(Cl)cc2Cl)cc(-c2ccccc2)nc1N` the IC50 (Dipeptidyl peptidase 4) was 920 nM.
